Among the data in paper PMC12183592, “Discovery of Iboga-Derived Ligands for the Sigma‑2 Receptor” (ACS Bio & Med Chem Au, 2025) are Ki values, retold here.

The term Ki denotes a measure of affinity in units of concentration, obtained from inhibition or displacement.

In test [1] the target is SERT (Homo sapiens, UniProt P31645). The test is described as follows: PDSP secondary radioligand displacement assay, Ki. Format: binding. The conditions noted are these: supplement xlsx. An excerpt: (§1) Thirteen analogs, in addition to ibogamine itself (Figure ), were submitted to the PDSP for biological evaluation. Primary radioligand displacement assays were run on 44 neurotransmitter receptors and transporters to give a snapshot of the receptor affinity for each ligand.
(Loss of bound radioactivity is the signal in a displacement assay; it reports binding, not function.)

The target in test [2] is Alpha1B (Homo sapiens, UniProt P35368). Kind of test: PDSP secondary radioligand displacement assay, Ki. In kind it is binding.
Excerpt: as §1

The target of test [3] is T1, Alpha2A (Homo sapiens, UniProt P08913).
T1 sequence (P08913 1-465): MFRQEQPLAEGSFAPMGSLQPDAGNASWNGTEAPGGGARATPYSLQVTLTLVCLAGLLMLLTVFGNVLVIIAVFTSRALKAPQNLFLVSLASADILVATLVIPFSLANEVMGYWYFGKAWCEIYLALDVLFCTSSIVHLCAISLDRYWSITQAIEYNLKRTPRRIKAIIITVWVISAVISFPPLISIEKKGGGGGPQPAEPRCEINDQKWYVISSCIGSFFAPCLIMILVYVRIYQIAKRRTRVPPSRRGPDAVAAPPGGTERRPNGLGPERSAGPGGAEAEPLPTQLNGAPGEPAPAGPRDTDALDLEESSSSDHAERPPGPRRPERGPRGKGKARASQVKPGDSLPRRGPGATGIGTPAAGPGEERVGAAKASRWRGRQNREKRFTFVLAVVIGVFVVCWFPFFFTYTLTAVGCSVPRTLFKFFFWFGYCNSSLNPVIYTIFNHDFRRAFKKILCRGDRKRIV
The test is described as follows: PDSP secondary radioligand displacement assay, Ki. In kind it is binding.
Excerpt: as §1

For test [4], the target named is T2, Alpha2C (Homo sapiens, UniProt P18825).
T2 sequence (P18825 1-462): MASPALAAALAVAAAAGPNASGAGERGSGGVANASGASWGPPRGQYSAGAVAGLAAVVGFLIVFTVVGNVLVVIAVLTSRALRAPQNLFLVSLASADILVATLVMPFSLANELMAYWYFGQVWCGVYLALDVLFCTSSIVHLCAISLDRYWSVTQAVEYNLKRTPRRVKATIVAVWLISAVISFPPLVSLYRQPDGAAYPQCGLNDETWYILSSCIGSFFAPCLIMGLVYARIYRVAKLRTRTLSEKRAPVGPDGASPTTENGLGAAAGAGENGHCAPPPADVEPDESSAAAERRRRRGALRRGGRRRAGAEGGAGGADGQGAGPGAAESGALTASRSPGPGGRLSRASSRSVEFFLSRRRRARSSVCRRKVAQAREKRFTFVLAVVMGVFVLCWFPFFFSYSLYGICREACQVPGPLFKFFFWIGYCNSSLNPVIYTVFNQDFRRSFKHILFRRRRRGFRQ
Kind of test: PDSP secondary radioligand displacement assay, Ki. The conditions noted are these: Ki values (nM) Alpha2C, supplement xlsx and text. Format: binding.
Excerpt: as §1

For test [5], the target named is DAT (Homo sapiens, UniProt Q01959). The test is described as follows: PDSP secondary radioligand displacement assay, Ki. Format: binding.
Excerpt: as §1

Test [6] concerns the target KOR (Homo sapiens, UniProt P41145). The test is described as follows: PDSP secondary radioligand displacement assay, Ki. Format: binding. Particulars: supplement xlsx.
Excerpt: as §1

The target of test [7] is T3, M2 (Homo sapiens, UniProt P08172).
T3 sequence (P08172 1-466): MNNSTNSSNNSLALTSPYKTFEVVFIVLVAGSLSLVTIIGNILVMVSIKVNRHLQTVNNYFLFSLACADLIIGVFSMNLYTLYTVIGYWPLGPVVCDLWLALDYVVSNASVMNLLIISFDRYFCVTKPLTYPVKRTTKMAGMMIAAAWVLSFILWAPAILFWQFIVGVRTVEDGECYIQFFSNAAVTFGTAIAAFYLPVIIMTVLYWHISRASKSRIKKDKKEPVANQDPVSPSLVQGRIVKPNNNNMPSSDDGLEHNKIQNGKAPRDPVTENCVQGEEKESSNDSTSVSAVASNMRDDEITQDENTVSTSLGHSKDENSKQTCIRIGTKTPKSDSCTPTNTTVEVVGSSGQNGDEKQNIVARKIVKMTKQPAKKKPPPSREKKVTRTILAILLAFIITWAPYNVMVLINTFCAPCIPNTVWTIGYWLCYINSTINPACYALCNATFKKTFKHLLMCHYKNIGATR
The test is described as follows: PDSP secondary radioligand displacement assay, Ki. Format: binding.
Excerpt: as §1

In test [8] the target is M3 (Homo sapiens, UniProt P20309). The test is described as follows: PDSP secondary radioligand displacement assay, Ki. In kind it is binding.
Excerpt: as §1

Test [9] concerns the target NET (Homo sapiens, UniProt P23975). The test is described as follows: PDSP secondary radioligand displacement assay, Ki. Format: binding.
Excerpt: as §1

The target in test [10] is 5-HT2A (Homo sapiens, UniProt P28223). Kind of test: PDSP secondary radioligand displacement assay, Ki. Particulars: supplement xlsx. Format: binding.
Excerpt: as §1

The target in test [11] is 5-HT3 (Homo sapiens, UniProt P46098). The test is described as follows: PDSP secondary radioligand displacement assay, Ki. Format: binding. The conditions noted are these: supplement xlsx.
Excerpt: as §1

The target of test [12] is T4, Alpha2B (Homo sapiens, UniProt P18089).
T4 sequence (P18089 1-450): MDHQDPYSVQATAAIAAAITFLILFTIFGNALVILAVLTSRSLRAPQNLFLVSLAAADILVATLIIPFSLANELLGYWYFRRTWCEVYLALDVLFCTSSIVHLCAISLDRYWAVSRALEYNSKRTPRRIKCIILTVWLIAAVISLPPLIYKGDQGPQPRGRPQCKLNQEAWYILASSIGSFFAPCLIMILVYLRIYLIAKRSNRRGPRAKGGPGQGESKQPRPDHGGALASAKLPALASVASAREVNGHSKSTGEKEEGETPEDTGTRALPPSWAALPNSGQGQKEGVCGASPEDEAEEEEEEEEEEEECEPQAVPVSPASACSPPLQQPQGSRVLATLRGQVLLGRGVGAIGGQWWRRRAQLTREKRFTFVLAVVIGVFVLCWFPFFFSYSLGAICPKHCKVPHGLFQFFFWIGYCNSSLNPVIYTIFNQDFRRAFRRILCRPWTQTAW
The test is described as follows: PDSP secondary radioligand displacement assay, Ki. Particulars: supplement xlsx. In kind it is binding.
Excerpt: as §1

The target of test [13] is H3 (Homo sapiens, UniProt Q9Y5N1). Kind of test: PDSP secondary radioligand displacement assay, Ki. In kind it is binding.
Excerpt: as §1

In test [14] the target is MOR (Homo sapiens, UniProt P35372). The test is described as follows: PDSP secondary radioligand displacement assay, Ki. Format: binding. Particulars: supplement xlsx.
The target in test [15] is 5-HT1D (Homo sapiens, UniProt P28221). Kind of test: PDSP secondary radioligand displacement assay, Ki. Format: binding. Particulars: supplement xlsx.
Excerpt: as §1

In test [16] the target is H4 (Homo sapiens, UniProt Q9H3N8). Kind of test: PDSP secondary radioligand displacement assay, Ki. Particulars: supplement xlsx. In kind it is binding.
Excerpt: as §1

For test [17], the target named is M1 (Homo sapiens, UniProt P11229). The test is described as follows: PDSP secondary radioligand displacement assay, Ki. Format: binding.
Excerpt: as §1

Test [18] deals with M4 (Homo sapiens, UniProt P08173). Kind of test: PDSP secondary radioligand displacement assay, Ki. In kind it is binding. Particulars: supplement xlsx.
Excerpt: as §1

Test [19] concerns the target M5 (Homo sapiens, UniProt P08912). The test is described as follows: PDSP secondary radioligand displacement assay, Ki. Format: binding.
Excerpt: as §1

In test [20] the target is H1 (Homo sapiens, UniProt P35367). Kind of test: PDSP secondary radioligand displacement assay, Ki. In kind it is binding.
Excerpt: as §1

For test [21], the target named is D2 (Homo sapiens, UniProt P14416). The test is described as follows: PDSP secondary radioligand displacement assay, Ki. Format: binding.
Excerpt: as §1

Test [22] addresses D3 (Homo sapiens, UniProt P35462). The test is described as follows: PDSP secondary radioligand displacement assay, Ki. In kind it is binding.
Excerpt: as §1

The target of test [23] is S2R. On the set-up: method as in earlier work. The conditions noted are these: ref 30 (Bowen et al., 1995); read-out: affinity at S2R (Ki); cited from earlier work.

Sequence of NET (P23975 whole entry): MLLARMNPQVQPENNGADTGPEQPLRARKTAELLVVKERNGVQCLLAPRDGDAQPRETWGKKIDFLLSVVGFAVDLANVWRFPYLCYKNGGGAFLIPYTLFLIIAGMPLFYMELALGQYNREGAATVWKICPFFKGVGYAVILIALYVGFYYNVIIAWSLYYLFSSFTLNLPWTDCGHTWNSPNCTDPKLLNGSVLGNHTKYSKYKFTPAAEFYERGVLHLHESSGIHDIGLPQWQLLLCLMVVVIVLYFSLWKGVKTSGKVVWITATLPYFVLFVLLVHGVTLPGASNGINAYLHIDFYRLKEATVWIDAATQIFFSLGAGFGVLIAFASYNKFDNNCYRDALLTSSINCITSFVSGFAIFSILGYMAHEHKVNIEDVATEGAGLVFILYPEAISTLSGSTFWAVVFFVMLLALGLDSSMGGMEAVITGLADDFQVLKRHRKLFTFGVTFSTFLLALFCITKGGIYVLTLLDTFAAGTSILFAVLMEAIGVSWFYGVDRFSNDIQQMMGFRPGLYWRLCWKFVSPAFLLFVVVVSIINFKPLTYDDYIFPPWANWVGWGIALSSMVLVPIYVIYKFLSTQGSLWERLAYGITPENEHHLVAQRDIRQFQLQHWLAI
Sequence of SERT (P31645 whole entry, species assumed): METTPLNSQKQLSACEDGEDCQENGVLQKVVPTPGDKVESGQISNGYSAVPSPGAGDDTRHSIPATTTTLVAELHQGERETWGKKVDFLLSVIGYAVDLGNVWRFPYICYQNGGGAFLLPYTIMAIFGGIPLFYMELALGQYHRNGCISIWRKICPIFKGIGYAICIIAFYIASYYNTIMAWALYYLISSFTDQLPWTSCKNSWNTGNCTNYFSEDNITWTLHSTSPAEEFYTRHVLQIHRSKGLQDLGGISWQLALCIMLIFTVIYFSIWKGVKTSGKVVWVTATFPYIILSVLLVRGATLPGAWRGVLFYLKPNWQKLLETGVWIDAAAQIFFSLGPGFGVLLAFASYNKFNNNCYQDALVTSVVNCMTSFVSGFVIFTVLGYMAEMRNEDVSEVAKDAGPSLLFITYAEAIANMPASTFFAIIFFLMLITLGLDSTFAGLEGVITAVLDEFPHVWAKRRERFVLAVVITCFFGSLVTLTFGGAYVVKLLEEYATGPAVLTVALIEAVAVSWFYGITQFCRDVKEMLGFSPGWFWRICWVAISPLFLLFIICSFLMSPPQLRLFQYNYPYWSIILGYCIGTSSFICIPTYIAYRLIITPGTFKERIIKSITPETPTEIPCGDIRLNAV
Sequence of MOR (P35372 whole entry): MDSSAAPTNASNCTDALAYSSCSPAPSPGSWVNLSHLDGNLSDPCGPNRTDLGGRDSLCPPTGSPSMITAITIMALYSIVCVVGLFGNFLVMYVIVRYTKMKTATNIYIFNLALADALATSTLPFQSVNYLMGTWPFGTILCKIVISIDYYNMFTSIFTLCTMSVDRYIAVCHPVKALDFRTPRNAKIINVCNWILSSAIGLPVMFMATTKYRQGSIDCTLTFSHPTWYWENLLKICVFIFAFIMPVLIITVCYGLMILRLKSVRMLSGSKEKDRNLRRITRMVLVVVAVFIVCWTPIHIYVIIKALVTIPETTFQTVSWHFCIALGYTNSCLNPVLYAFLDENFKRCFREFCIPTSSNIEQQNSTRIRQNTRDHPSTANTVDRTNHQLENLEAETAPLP
Sequence of M3 (P20309 whole entry): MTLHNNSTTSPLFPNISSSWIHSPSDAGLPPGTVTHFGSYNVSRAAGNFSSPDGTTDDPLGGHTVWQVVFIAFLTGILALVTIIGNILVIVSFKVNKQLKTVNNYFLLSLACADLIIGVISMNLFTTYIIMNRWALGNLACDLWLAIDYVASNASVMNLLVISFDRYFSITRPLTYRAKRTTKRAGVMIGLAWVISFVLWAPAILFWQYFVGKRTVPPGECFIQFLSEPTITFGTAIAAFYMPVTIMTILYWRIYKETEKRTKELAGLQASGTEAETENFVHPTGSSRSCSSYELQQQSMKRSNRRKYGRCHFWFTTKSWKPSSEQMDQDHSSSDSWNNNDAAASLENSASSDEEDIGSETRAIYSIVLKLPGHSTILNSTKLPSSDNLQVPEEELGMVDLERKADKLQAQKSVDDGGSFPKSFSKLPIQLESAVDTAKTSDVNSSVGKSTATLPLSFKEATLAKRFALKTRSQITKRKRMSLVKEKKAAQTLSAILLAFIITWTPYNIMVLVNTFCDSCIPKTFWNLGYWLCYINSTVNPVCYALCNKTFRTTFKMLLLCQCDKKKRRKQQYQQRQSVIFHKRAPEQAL
Sequence of DAT (Q01959 whole entry, species assumed): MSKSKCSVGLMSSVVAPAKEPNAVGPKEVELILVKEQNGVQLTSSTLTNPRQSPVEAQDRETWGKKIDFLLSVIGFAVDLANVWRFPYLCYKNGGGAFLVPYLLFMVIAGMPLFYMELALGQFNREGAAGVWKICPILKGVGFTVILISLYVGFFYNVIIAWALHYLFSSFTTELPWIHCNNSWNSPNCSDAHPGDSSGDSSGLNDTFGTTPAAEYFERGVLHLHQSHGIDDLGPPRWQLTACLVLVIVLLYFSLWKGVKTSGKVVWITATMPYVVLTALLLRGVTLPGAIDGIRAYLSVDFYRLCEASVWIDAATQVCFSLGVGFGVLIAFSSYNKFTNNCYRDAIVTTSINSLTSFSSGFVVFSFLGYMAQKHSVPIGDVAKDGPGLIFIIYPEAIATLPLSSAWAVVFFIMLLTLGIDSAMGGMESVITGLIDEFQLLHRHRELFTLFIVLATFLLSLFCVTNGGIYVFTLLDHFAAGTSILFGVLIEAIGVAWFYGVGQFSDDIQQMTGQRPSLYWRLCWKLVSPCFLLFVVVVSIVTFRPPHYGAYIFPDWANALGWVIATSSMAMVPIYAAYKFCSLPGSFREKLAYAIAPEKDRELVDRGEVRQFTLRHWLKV
Sequence of H3 (Q9Y5N1 whole entry): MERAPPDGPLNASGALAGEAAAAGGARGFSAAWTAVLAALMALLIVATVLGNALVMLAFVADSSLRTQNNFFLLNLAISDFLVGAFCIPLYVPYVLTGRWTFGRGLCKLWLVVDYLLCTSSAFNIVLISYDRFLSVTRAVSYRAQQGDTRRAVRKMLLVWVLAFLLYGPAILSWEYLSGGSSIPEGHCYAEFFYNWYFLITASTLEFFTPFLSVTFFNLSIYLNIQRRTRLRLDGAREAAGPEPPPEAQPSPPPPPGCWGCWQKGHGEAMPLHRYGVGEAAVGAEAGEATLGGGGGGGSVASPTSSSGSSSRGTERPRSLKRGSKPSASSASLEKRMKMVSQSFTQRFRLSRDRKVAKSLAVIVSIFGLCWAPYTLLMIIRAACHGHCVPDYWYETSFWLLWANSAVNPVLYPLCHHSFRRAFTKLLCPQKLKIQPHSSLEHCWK
Sequence of 5-HT1D (P28221 whole entry, species assumed): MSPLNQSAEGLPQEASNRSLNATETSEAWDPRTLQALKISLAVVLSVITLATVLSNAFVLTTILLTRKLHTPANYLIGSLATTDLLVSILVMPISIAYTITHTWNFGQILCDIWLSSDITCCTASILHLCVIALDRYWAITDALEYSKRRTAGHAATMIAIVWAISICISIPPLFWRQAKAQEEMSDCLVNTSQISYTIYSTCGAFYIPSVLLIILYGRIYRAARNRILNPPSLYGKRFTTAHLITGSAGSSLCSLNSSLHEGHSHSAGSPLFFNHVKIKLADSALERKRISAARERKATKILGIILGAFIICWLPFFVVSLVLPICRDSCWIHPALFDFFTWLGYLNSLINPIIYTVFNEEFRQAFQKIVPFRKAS
Sequence of KOR (P41145 whole entry): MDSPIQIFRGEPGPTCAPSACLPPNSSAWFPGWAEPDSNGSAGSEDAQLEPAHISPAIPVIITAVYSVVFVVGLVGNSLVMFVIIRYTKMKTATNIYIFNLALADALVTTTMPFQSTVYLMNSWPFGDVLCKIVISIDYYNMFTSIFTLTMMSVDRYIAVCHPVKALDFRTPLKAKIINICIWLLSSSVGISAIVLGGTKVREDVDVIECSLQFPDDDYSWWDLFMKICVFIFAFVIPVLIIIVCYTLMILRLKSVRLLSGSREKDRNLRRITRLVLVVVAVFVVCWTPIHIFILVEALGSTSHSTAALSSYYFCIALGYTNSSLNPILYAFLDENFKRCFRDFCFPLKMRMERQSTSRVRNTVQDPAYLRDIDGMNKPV
Sequence of M5 (P08912 whole entry): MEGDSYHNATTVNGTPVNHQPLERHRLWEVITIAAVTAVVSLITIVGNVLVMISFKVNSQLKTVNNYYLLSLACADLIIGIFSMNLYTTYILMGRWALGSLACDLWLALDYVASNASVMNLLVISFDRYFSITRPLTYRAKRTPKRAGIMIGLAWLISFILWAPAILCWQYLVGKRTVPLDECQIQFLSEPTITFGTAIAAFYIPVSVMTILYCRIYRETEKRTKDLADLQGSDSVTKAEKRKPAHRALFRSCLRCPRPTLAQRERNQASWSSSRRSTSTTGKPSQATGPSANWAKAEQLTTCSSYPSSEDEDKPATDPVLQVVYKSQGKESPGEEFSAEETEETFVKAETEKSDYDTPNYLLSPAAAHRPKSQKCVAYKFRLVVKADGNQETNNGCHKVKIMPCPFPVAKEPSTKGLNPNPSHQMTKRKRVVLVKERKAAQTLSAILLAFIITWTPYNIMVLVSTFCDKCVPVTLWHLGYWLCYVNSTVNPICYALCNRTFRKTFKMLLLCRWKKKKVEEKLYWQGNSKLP
Sequence of H4 (Q9H3N8 whole entry): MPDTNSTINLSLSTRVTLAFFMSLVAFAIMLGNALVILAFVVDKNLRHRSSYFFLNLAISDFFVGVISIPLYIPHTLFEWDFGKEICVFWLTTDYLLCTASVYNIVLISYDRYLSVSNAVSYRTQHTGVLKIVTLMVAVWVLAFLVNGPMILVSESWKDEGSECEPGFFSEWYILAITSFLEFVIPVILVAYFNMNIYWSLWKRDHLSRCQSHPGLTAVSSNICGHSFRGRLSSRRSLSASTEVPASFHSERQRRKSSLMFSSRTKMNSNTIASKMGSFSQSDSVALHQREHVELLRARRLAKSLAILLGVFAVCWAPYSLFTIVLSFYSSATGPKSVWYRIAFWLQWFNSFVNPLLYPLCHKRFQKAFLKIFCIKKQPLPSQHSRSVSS

Regarding `CCC1C[C@H]2CC3c4[nH]c5ccccc5c4CCN(C2=O)C13` (stereo in doubt) [compound 22], the affinity in test [1] corresponds to a Ki of 1380 nM.
For `CCC1CC2CC3c4[nH]c5cc(F)ccc5c4CCN(C2)C13` (stereo not drawn) [7a], the inhibitory constant (Ki) in [2] was found to be 2090 nM; in test [3], 4100 nM; in test [4], 623 nM; in test [5], 1320 nM; in test [6], 4770 nM; in [7] it was 2690 nM. Moreover, the Ki turned out to be 734 nM in test [8], 5700 nM in test [9] and 153 nM in test [1].
In the case of `CCC1CC2CC3c4[nH]c5cc(Cl)ccc5c4CCN(C2)C13` (stereo not drawn) [7b], the Ki in test [10] stood at 3000 nM; in test [11] it was 1010 nM; in test [3], 1720 nM; in [12] it was 2360 nM; in [4], 1360 nM; in [13], 2880 nM. In addition, the Ki was determined as 1400 nM in [6]; 2940 nM in [7]; 811 nM in test [8]; 1790 nM in test [9]; 177 nM in test [1]; 4450 nM in test [14].
As for `CCC1CC2CC3c4[nH]c5cc(Br)ccc5c4CCN(C2)C13` (stereo not drawn) [7c], the Ki was found to be 7460 nM in test [15]; 1400 nM in [11]; 1630 nM in test [3]; 1620 nM in test [12]; 71 nM in test [4]; 807 nM in [5]. Also, the Ki in [13] is 3320 nM; in test [6], 1040 nM; in test [7] it was 8030 nM; in test [8] it was 1520 nM; in test [9] it was 1750 nM; in test [1], 162 nM. The compound further returned a Ki in test [14] of 4210 nM.
Consider `CCC1CC2CC3c4[nH]c5cc(C(F)(F)F)ccc5c4CCN(C2)C13` (stereo not drawn) [7e], for which the Ki in [10] turned out to be 1800 nM; in test [3], 1420 nM; in test [12] it was 1650 nM; in test [4], 110 nM; in [13], 2290 nM; in test [16] it was 3030 nM. For the same compound, the Ki in test [6] was 1500 nM; in test [17] it was 4570 nM; in test [8] it was 1950 nM; in [1] it was 206 nM; in [14], 3810 nM.
Regarding `CCC1CC2CC3c4[nH]c5cc6c(cc5c4CCN(C2)C13)OCO6` (stereo not drawn) [7f], the values for the Ki in [15] and in test [13] were greater than 10000 nM and 5410 nM, respectively.
In turn, `C[C@H]1CC2CC3c4[nH]c5ccccc5c4CCN(C2)C31` (stereo partly drawn) [7g] gave a Ki in test [1] of 371 nM.
`CC(C)[C@H]1CC2CC3c4[nH]c5ccccc5c4CCN(C2)C31` (stereo partly drawn) [7h]: the Ki is 2020 nM in test [5]; 995 nM in test [6]; 414 nM in test [8]; 416 nM in [18]; 1100 nM in test [19]; 709 nM in test [1]. The Ki in test [14] was found to be 3130 nM.
Regarding `c1ccc2c3c([nH]c2c1)C1CC2C[C@H](C4CCOCC4)C1N(CC3)C2` (stereo partly drawn) [7i], the Ki in [20] stood at 882 nM; in [17], 138 nM; in test [7], 150 nM; in test [8], 73.7 nM; in test [18] it was 37.9 nM; in test [19] it was 224 nM. Besides, the results for the Ki in test [1] and in [14] were 1710 nM and 1810 nM, respectively.
For the compound `CCC1CC2CC3c4c(c5ccccc5n4CC=C(C)C)CCN(C2)C13` (stereo not drawn) [compound 23], the Ki came to 2420 nM in test [21], 249 nM in test [22], 1710 nM in test [20] and 6440 nM in test [14].
For the compound `CC[C@H]1C[C@H]2C[C@H]3c4[nH]c5ccccc5c4CCN(C2)[C@@H]13` [ibogamine (1), ibogamine, reference compound], the Ki in [8] was 2460 nM; in [1], 272 nM; in [14] it was 2460 nM; in test [23] it was 137 nM.
Take `CC[C@H]1C[C@@H]2C[C@H]3c4[nH]c5cc(OC)ccc5c4CC[N@@](C2)[C@@H]13` [tabernanthine (3), tabernanthine, reference compound]: the Ki was 7660 nM in test [15]; 2300 nM in test [13]; 319 nM in test [6]; 1300 nM in test [1]; 194 nM in test [23].
ibogaine [ibogaine (2)]: the Ki in test [23] was 201 nM.
